System: MCPP-induced Hypolocomotion
Experiment: Reversal of MCPP-induced Hypolocomotion
Type: in vivo
Conditions: po, procedure of WO 94/04533, read-out: ID50 (the source's name)
Method: Reversal of MCPP-induced Hypolocomotion
Compounds were tested following the procedure outlined in WO 94/04533. The compound of example 8 has an ID50 of 10.0 mg/kg p.o.

## CSc1cc2c(cc1C(F)(F)F)N(C(=O)Nc1cccc(C(=O)NCCN(C)C)c1)CC2 [Example 8, 5-Methylthio-6-trifluoromethyl-1-[3-[(2-dimethylaminoethyl)carbamoyl]phenylcarbamoyl]indoline]
  ED50: 10 mg/kg
